Reference: patent US4829076A, “Novel dihydropyridines having calcium antagonistic and antihypertensive activity” (Alkaloida Vegyeszeti Gyar, priority 1986, dated 1989)
Like-named read-outs stand apart in the source and are kept apart here.

Experiments:
[1] = tested on: spontaneously hypertensive conscious rats; experiment: Antihypertensive effect in spontaneously hypertensive conscious rats ("SH" rats); type: in vivo, rat (Wistar-Okamoto); settings: for change in vivo at 10 mg/kg / change in vivo at 2.5 mg/kg: Rattus norvegicus, po
Description: The blood pressure of rats was measured before treatment and hourly after drug administration till the 24th posttreatment hour. The test compounds were administered orally, by gavage.

[2] = tested on: anesthetized, normotensive cats; experiment: Hypotensive effect in anesthetized, normotensive cats; type: in vivo, cat; settings: 1 mg/kg id.
Description: A tube was inserted in the trachea of cats anesthetized with ip.35 mg/kg of pentobarbital sodium to ensure spontaneous respiration. The femoral artery and vein were both cannulated unilaterally. The vegetative test compounds (adrenaline, isoproterenol) were administered through the venous cannule. The mean arterial blood pressure was measured by joining the arterial cannule to a Statham P23Db pressure transducer and electromanometer. The heart rate was determined by a cardiotachometer triggered by arterial pulse-wave.
Various doses of the test compounds were administered through a cannule inserted into the duodenum.

[3] = tested on: PGF2alpha induced uterus contractions (isolated rat uterus); experiment: In vitro uterus relaxant activity in the isolated rat uterus (inhibition of PGF2alpha induced contraction); settings: 10^-6 M test compound
Description: The test was performed according to the method of Gaddum and Hammeed [Brit. […] The inhibitory activity of 10^-6 M doses of the test compounds on the PGF2alpha induced uterus contractions was determined.

[4] = 10 mg/kg p.o., 2 h, read-out: Systolic blood pressure reduction in %, 2 h
[5] = 10 mg/kg p.o., 5 h, read-out: Systolic blood pressure reduction in %, 5 h
[6] = 10 mg/kg p.o., 24 h, read-out: Systolic blood pressure reduction in %, 24 h

SMILES | Systolic blood pressure, 2 h ([1]; 10 mg/kg p.o., 2 h) [Hgmm] | Systolic blood pressure, 5 h ([1]; 10 mg/kg p.o., 5 h) [Hgmm] | Systolic blood pressure, 24 h ([1]; 10 mg/kg p.o., 24 h) [Hgmm] | change in vivo at 10 mg/kg [1, 4] [%] | change in vivo at 10 mg/kg [1, 5] [%] | change in vivo at 10 mg/kg [1, 6] [%] | Mean arterial pressure, 5 min [2] [Hgmm] | Mean arterial pressure, 15 min [2] [Hgmm] | Mean arterial pressure, 30 min [2] [Hgmm] | Mean arterial pressure, 60 min [2] [Hgmm] | Mean arterial pressure, 120 min [2] [Hgmm] | Inhibition of PGF2alpha induced contraction [3] [%] | Systolic blood pressure, 2 h ([1]; 2.5 mg/kg p.o., 2 h) [Hgmm] | Systolic blood pressure, 5 h ([1]; 2.5 mg/kg p.o., 5 h) [Hgmm] | Systolic blood pressure, 24 h ([1]; 2.5 mg/kg p.o., 24 h) [Hgmm] | change in vivo at 2.5 mg/kg ([1]; 2.5 mg/kg p.o., 2 h, read-out: Systolic blood pressure reduction in %, 2 h) [%] | change in vivo at 2.5 mg/kg ([1]; 2.5 mg/kg p.o., 5 h, read-out: Systolic blood pressure reduction in %, 5 h) [%] | change in vivo at 2.5 mg/kg ([1]; 2.5 mg/kg p.o., 24 h, read-out: Systolic blood pressure reduction in %, 24 h) [%]
COC(=O)C1=C(C)NC(C)=C(C(=O)OC)C1c1ccccc1NC(=O)C=Cc1ccccc1 [Example 9] | 166.6 | 166.6 | 192.0 | -13 | -13 | 1 | 125 | 85 | 65 | 75 | 102 | 94.3 |  |  |  |  |  | 
COC(=O)C1=C(C)NC(C)=C(C(=O)OC)C1c1ccccc1NS(=O)(=O)c1ccc([N+](=O)[O-])cc1 [Example 42, 2,6-Dimethyl-3,5bis(methoxycarbonyl)-4-[2-(4-nitrobenzenesulfonamido)-phenyl]-1,4-dihydropyridine] |  |  |  |  |  |  |  |  |  |  |  | 88.0 |  |  |  |  |  | 
COC(=O)C1=C(C)NC(C)=C(C(=O)OC)C1c1ccccc1NS(C)(=O)=O [Example 41, 2,6-Dimethyl-4-n2-methanesulfonylamidophenyl)-3,5-bis(methoxycarbonyle-1,4-dihydropyridine] |  |  |  |  |  |  | 90 | 80 | 85 |  |  |  |  |  |  |  |  | 
CCCCCCCC(=O)Nc1ccccc1C1C(C(=O)OC)=C(C)NC(C)=C1C(=O)OC [Example 18] | 179.2 | 178 | 192.6 | -11 | -11 | -4 | 75 |  | 100 | 100 |  |  |  |  |  |  |  | 
COC(=O)C1=C(C)NC(C)=C(C(=O)OC)C1c1ccccc1NC(=O)c1ccc(Cl)cc1 [Example 6] |  |  |  |  |  |  | 115 | 85 | 65 | 70 | 75 |  |  |  |  |  |  | 
COC(=O)C1=C(C)NC(C)=C(C(=O)OC)C1c1ccccc1NC(=O)c1ccc(OC)cc1 [Example 14] | 165 | 164.5 | 206.8 | -17 | -17 | 4 | 150 | 75 | 85 | 95 | 110 |  |  |  |  |  |  | 
COC(=O)C1=C(C)NC(C)=C(C(=O)OC)C1c1ccccc1NC(=O)c1ccccc1 [Example 12] | 164 | 166.0 | 190.8 | -14 | -13 | 0 | 115 | 92 | 90 | 97 | 145 | 83.3 |  |  |  |  |  | 
COC(=O)C1=C(C)NC(C)=C(C(=O)OC)C1c1ccccc1NC(=O)c1ccccc1[N+](=O)[O-] [Example 8] |  |  |  |  |  |  |  |  |  |  |  | 96.7 |  |  |  |  |  | 
COCCOC(=O)C1=C(C)NC(C)=C(C(=O)OC)C1c1ccccc1NC(=O)c1ccc([N+](=O)[O-])cc1 (centres unmarked) [Example 28] | 174.8 | 163.5 | 202.4 | -10 | -16 | 4 | 137 | 105 | 97 | 100 | 115 |  |  |  |  |  |  | 
COC(=O)C1=C(C)NC(C)=C(C(=O)OC)C1c1ccccc1NC(=O)c1cccc(C)c1 [Example 20] |  |  |  |  |  |  | 140 |  | 105 | 105 | 120 |  |  |  |  |  |  | 
COC(=O)C1=C(C)NC(C)=C(C(=O)OC)C1c1ccccc1NC(=O)C=Cc1ccc([N+](=O)[O-])cc1 [Example 11] | 140 | 157.8 | 178.8 | -26 | -16 | -5 | 147 | 130 | 125 | 120 | 132 | 77.8 |  |  |  |  |  | 
COC(=O)C1=C(C)NC(C)=C(C(=O)OC(C)C)C1c1ccccc1NC(=O)C(F)(F)F (centres unmarked) [Example 37, 2,6-Dimethyl-3-isopropoxycarbonyl-5-methoxycarbonyl-4-(2-trifluoroacetamidophenyl)-1,4-dihydrophyridine] |  |  |  |  |  |  | 150 | 100 | 100 | 100 | 135 |  |  |  |  |  |  | 
COC(=O)C1=C(C)NC(C)=C(C(=O)OC)C1c1ccccc1NC(=O)c1ccccc1C [Example 21] | 175.2 | 167.8 | 201.4 | -10 | -14 | 4 | 90 | 95 | 100 | 110 | 110 |  |  |  |  |  |  | 
CCc1ccc(C(=O)Nc2ccccc2C2C(C(=O)OC)=C(C)NC(C)=C2C(=O)OC)cc1 [Example 22] |  |  |  |  |  |  | 120 | 110 | 105 | 85 | 85 |  | 142.2 | 144.0 | 191.4 | -27 | -26 | -2
COCCOC(=O)C1=C(C)NC(C)=C(C(=O)OC)C1c1ccccc1NC(=O)C(F)(F)F (centres unmarked) [Example 36, 2,6-Dimethyl-3-methoxycarbonyl-5-(2-methoxyethoxycarbonyl)-4-(2-trifluoroacetamidophenyl)-1,4-dihydropyridine] | 172.8 | 172.4 | 222.0 | -19 | -19 | 4 |  |  |  |  |  |  |  |  |  |  |  | 
COC(=O)C1=C(C)NC(C)=C(C(=O)OC)C1c1ccccc1NC(=O)c1ccco1 [Example 10] |  |  |  |  |  |  | 60 | 70 | 80 | 85 |  | 94.0 |  |  |  |  |  | 
